Here are results for one molecule from patent US11865157B2, “Compositions and methods of targeting cancer stem cells” (University of Houston System, priority 2016, dated 2024).

Common to all, as to assay type: cell-based
In one experiment the test system is H358 cells. As to the kind of experiment: Clonogenicity assay under treatment. To be noted: 2 weeks. As to the method: To further validate that PCS2D1 inhibiting CSCs, the effects of PCS2D1 against a stem-cell-associated phenotype were studied with regards to the capacity to form colonies from a single cell by using the clonogenicity assay. About 300 cells were plated onto 35 mm cell culture plates with either 0, 1, 10, 30, or 100 μM of PCS2D1, and allowed to grow for 2 weeks. After staining with crystal violet, both the number of colonies and the overall morphology of the colonies were evaluated.
(§1) The clonogenicity assay was repeated with H358 cells, 500 cells/well, using 0, 10, 30 and 100 μM PCS2 treatment over 2 weeks. […] To confirm that this was due to the specific targeting on CSCs, the clonogenicity assay was performed again over 8 days, with the treatment performed from day 7 to 8 instead, to allow the colonies to establish. This was done alongside control cells plated on chamber slides and then grown under the same conditions.

In another experiment the test system is H358 ALDH− cells. As to the kind of experiment: MTS survival assay on sorted cells. As to the method: To verify that PCS2-treatment has a direct effect on the survival of CSCs, an MTS survival assay was performed on sorted H358 cells. The assay is based on the reduction of MTS tetrazolium compound by viable cells to generate a colored formazan product that is soluble in cell culture media. This conversion is thought to be carried out by NAD(P)H-dependent dehydrogenase enzymes in metabolically active cells. The formazan dye produced by viable cells was quantified by measuring the absorbance at 490-500 nm. H358 cells were stained using the ALDEFluor, then the ALDH+ cells were isolated by the MD Anderson Flow Cytometry and Cell Sorting core. The sorted ALDH+ cells were treated with 1 nM to 100 μM of PCS2D1 for 24 hours, and then the relative amount of surviving cells was determined by MTS. The number of cells in the ALDH+ fraction decreased under the treatment of PCS2D1, while ALDH^− cells were unaffected (FIG. 10). […] Furthermore, this peptoid is still at the initial stage of development and further modifications can be made to optimize and increase the potency.
To verify that PCS2-treatment has a direct effect on the survival of CSCs, an MTS survival assay was performed on sorted H358 cells as described in Example 4. The number of cells in the ALDH+ fraction decreased under the treatment of PCS2D1, while ALDH^− cells were unaffected (FIG. 21). The IC50 was around 2 μM. […]

Experiment [1] deals with unsorted H358 cells. As to the kind of experiment: MTS cell-proliferation assay on unsorted cells. How it is done:
Further experiments were conducted to evaluate how PCS2 affects the proliferation of unsorted cancer cell populations. The standard MTS cell-proliferation assay was performed on unsorted H358 cells (known to contain 5-15% of CSCs) and measured proliferation rates over 6 days, at concentrations ranging from 100 nM to 100 μM of PCS2D1.

The subject of a further experiment is H358 unsorted cells. As to the kind of experiment: Scratch (wound healing) assay. To be noted: 10 μM and higher, 24 hours. How it is done:
Another stem-cell-associated phenotype is the capacity of stem cells to migrate and repair gaps in a tissue or cell culture. To determine if this capacity is affected by PCS2D1, a scratch (would healing) assay was performed on H358 cells after 24 hour treatment of 0, 0.3, 1, 3 10, 30 or 100 μM of PCS2D1. Each well of confluent H358 unsorted cells was scratched using a 1000 μL pipet tip, washed, then treated with PCS2D1 for 24 hours. Each well was then stained, and the average area of the remaining scratch was calculated from a microscope viewing window near the center of the well.

The test system of the next experiment is H358 colonies. As to the kind of experiment: Variation of the clonogenicity assay: treatment of established colonies, crystal violet and ALDEFluor staining. As to the method: Another set of experiments were designed to evaluate if differentiated cells from CSCs were targeted by PCS2D1 as well. A variation of the clonogenicity assay was performed, where about 300 unsorted H358 cells were plated to 35 mm plates each and allowed to form colonies for 7 days. After that time, the colonies were treated with either 0, 1, 10, 30, or 100 μM of PCS2D1 for 24 hours, and then stained with crystal violet. The colonies were examined under a microscope. […] To determine if the cells lost are CSCs or the differentiated cells, ALDEFluor staining was performed against some of the colonies at 0 and 100 μM treatment.
as §1

Experiment [2] concerns unsorted H358 cells. As to the kind of experiment: Expression of CSC markers after treatment. To be noted: 100 μM, after 96 hours of treatment.

Entries after “also recorded” stand apart in the source; their conditions may differ. Numbered stars: 1 amine (or outer) side, 2 acyl side, 3 side chain; on linkers, the order of the positions; unused ones are H or OH. Bridge positions count the residues as written; N and C are the ends. Square brackets hold non-standard residues; d marks the D form. Peptide text beside a SMILES is read from it. I, II: the chains in the order shown. Gly(N-piperonyl) = O=C(O)CNCc1ccc2c(c1)OCO2; X1 = CC(c1ccccc1)N(CC(=O)[*:2])[*:1]; Nlys = NCCCCNCC(=O)O; Nme = COCCNCC(=O)O

Regarding `COCCNCC(=O)N(CCCCN)CC(=O)N(CC(=O)N(CC(=O)N(CCCCN)CC(=O)N[C@@H](CCCCN)C(=O)N[C@H](CCCCN)C(=O)N[C@@H](CCSC)C(=O)NCCCC[C@H](NC(=O)[C@H](CCSC)NC(=O)[C@@H](CCCCN)NC(=O)[C@H](CCCCN)NC(=O)CN(CCCCN)C(=O)CN(C(=O)CN(Cc1ccc2c(c1)OCO2)C(=O)CN(CCCCN)C(=O)CNCCOC)C(C)c1ccccc1)C(N)=O)C(C)c1ccccc1)Cc1ccc2c(c1)OCO2` (stereo partly drawn) [PCS2D1] (I: H-[Nme][Nlys][Gly(N-piperonyl)][X1][Nlys]K[dK]MK-NH2 / II: H-[Nme][Nlys][Gly(N-piperonyl)][X1][Nlys]K[dK]M; amide I:9-II:C; N-terminus and C-terminus assumed), the “morphology of the colonies” value with H358 cells (10 μM) is listed as “significantly more dispersed colonies”. The colonies formed entry in the experiment with H358 cells (about 300 cells, 30 and 100 μM) is given as “significant decrease in colonies formed”. The “effect on ALDH− cells” value with H358 ALDH− cells was “unaffected”. Besides, the “overall growth of the H358 cell line” value with unsorted H358 cells [1] (30 μM and higher, by day 2) is reported as “significantly decreased”. Further, the “growth of the H358 cell line” value in the experiment with unsorted H358 cells [1] (100 μM, over 6 days) is listed as “no significant growth”. Further, the “migration (area of remaining scratch)” value in the experiment with H358 unsorted cells is listed as “migration was significantly inhibited”. Besides, the “ALDH fluorescence of colonies” value with H358 colonies (100 μM, ALDEFluor staining) is “no significant fluorescence; also recorded: complete loss of ALDH^+ cells”. Moreover, in the experiment on H358 colonies (10-30 μM, Aldefluor assay), the “ALDH fluorescent cell number” value is “reduction in fluorescent cell number”. Also, in the experiment with H358 colonies (colonies grown 7 days, then 24 hours treatment at 10 μM and higher), the “loss of cells from the colony center” value was “significant loss of cells from the colony center; also recorded: significant loss of “central” cells”. In addition, in the experiment on unsorted H358 cells [2], the “expression of ALDH1A3” value is on record as “significant drop”, the “expression of PLEC” value was “significant drop” and the “expression of SOX2” value is listed as “significant drop”.
